Measured values as given in patent US12343347B2 (Biohaven Pharmaceutical Holding Company Ltd., priority 2012, dated 2025).

Key:
[1] = Plasma stability in fresh human plasma; assay type: in vitro ADME; conditions: 1 uM, 37° C.
Method: (§1) Plasma Stability: Assessment of plasma stability was carried out by individual incubations of drug candidates in fresh mouse or human control plasma at a concentration of 1 uM for 1 hour at 37° C. After which, the samples were de-proteinized by addition of 2 volumes of acetonitrile containing 0.1% formic acid and internal standard, vortex mixed for 2 minutes and centrifuged at 4000 rpm for 10 minutes to pellet precipitated protein. The resulting supernatant containing the drug candidates was diluted 5-fold with water containing 0.1% formic acid and submitted to LC-MS/MS analysis. All determinations were done in triplicate. […]
(§2) LC-MS/MS Analysis: An aliquot from each incubation was analyzed by LC-MS/MS with SRM detection in the positive ionization mode using an ABSciex API 5500 QTrap Mass Spectrometer interfaced via the ABSciex Turbo V IonSpray source (ESI) to an Eksigent ExpressHT LC system. […] A fast gradient, from 15 to 85% organic in 2.5 minutes, with run time of 5.0 minutes, and flow rate of 50 uL/min was utilized. Peak areas were integrated using MultiQuant v2.0 software from ABSciex.

[2] = Metabolic stability in pooled human liver microsomes; assay type: in vitro ADME; conditions: human liver microsomes 0.5 mg/mL, 1 uM, NADPH, 37° C.
Method: (§3) Metabolic Stability: In vitro metabolic stability was determined in pooled mouse or human liver microsomes (BD Gentest) at a protein concentration of 0.5 mg/mL in reaction buffer (100 mM KH2PO4, pH 7.4 and 12 mM MgCl2). Each drug candidate was added to a final concentration of 1 uM. This mixture was pre-warmed to 37° C. for 10 minutes prior to starting the reaction with the addition of β-Nicotinamide adenine dinucleotide 2′-phosphate reduced (NADPH) to a final concentration of 1 mM. A parallel incubation lacking NADPH served as the control. After incubation for 30 min at 37° C., the reactions were quenched by the addition of acetonitrile containing 0.1% formic acid and internal standard, vortex mixed for 2 minutes and centrifuged at 4000 rpm for 10 minutes to pellet the precipitated protein. The resulting supernatant containing the drug candidate and its potential metabolites was diluted 5-fold with water containing 0.1% formic acid and submitted to LC-MS/MS analysis. […]
as §2

[3] = Plasma stability in fresh mouse plasma; assay type: in vitro ADME; conditions: 1 uM, 37° C.
Method: as §1, §2

[4] = Metabolic stability in pooled mouse liver microsomes; assay type: in vitro ADME; conditions: mouse liver microsomes 0.5 mg/mL, 1 uM, NADPH, 37° C.
Method: as §3, §2

[5] = Stability in Simulated Intestinal Fluid (SIF); assay type: in vitro ADME; conditions: SIF:acetonitrile 9:1, 0.01 mg/mL, 37° C.
Method: (§4) Stability in Simulated Gastric Fluid (SGF) and Simulated Intestinal Fluid (SIF). Procedure from Baudy et. al. (J. Med. Chem. 2009, 52, 771-778) used. The physiological stability of pro-drugs was determined by examining the stability of the compound in SGF, and SIF at 37° C. The compounds were prepared in a 9:1 mixture of the appropriate test component (SGF, SIF) and acetonitrile to a final concentration of 0.01 mg/mL. The samples were thoroughly mixed and maintained at 37° C. Each sample was injected consecutively onto an Agilent 1100 system (Luna C18, 3 μm, 50 mm×3 mm; 1 mL/min; mobile phase of 0.1% trifluoroacetic acid in water/0.1% trifluoroacetic acid in acetonitrile) after a 3 h period. The percent remaining of pro-drug was calculated by comparing the area of pro-drug compound versus riluzole generated. The identities of the parent compounds and conversion products were confirmed by LC/MS.

[6] = Stability in Simulated Gastric Fluid (SGF); assay type: in vitro ADME; conditions: SGF:acetonitrile 9:1, 0.01 mg/mL, 37° C.
Method: as §4

[7] = tested on: amyotrophic lateral sclerosis (ALS) patients; conditions: after 1.5 years of treatment; cited from earlier work

Structure (SMILES)	Plasma Stability Human (1 hour), percent of pro-drug metabolized to riluzole [1] [%]	Metabolic Stability human (30 minutes), percent of pro-drug metabolized to riluzole [2] [%]	Plasma Stability mouse (1 hour), percent of pro-drug metabolized to riluzole [3] [%]	Metabolic Stability mouse (30 minutes), percent of pro-drug metabolized to riluzole [4] [%]	SIF (3 hours), percent of pro-drug metabolized to riluzole [5] [%]	SGF (3 hours), percent of pro-drug metabolized to riluzole [6] [%]	increase of lifespan [7]
CN(C)CCCOC(=O)Nc1nc2ccc(OC(F)(F)F)cc2s1 [Cpd 19, (6-Trifluoromethoxy-benzothiazol-2-yl)-carbamic acid 3-dimethylamino-propyl ester]	0	0	0	71	0	0	–
O=C(O)CCC(=O)Nc1nc2ccc(OC(F)(F)F)cc2s1 [Cpd 20, N-(6-Trifluoromethoxy-benzothiazol-2-yl)-succinamic acid]	16	0	0	70	0	0	–
COC(=O)CCC(=O)Nc1nc2ccc(OC(F)(F)F)cc2s1 [Cpd 21, N-(6-Trifluoromethoxy-benzothiazol-2-yl)-succinamic acid methyl ester]	25	34	99	77	0	3	–
Nc1nc2ccc(OC(F)(F)F)cc2s1 [riluzole, 6-(trifluoromethoxy)-1,3-benzothiazol-2-amine]	–	–	–	–	–	–	2-3 months

Second part, led by results:

Plasma Stability Human (1 hour), percent of pro-drug metabolized to riluzole [1] [%]	Metabolic Stability human (30 minutes), percent of pro-drug metabolized to riluzole [2] [%]	Plasma Stability mouse (1 hour), percent of pro-drug metabolized to riluzole [3] [%]	Metabolic Stability mouse (30 minutes), percent of pro-drug metabolized to riluzole [4] [%]	SIF (3 hours), percent of pro-drug metabolized to riluzole [5] [%]	SGF (3 hours), percent of pro-drug metabolized to riluzole [6] [%]	Structure (SMILES)	increase of lifespan [7]
0	21	0	0	0	0	CC(C)(C)OC(=O)CCC(=O)Nc1nc2ccc(OC(F)(F)F)cc2s1 [Cpd 22, N-(6-Trifluoromethoxy-benzothiazol-2-yl)-succinamic acid tert-butyl ester]	–
0	4	26	0	10	0	O=C(CCC(=O)Nc1nc2ccc(OC(F)(F)F)cc2s1)NCc1cccnc1 [Cpd 23, N-Pyridin-3-ylmethyl-N′-(6-trifluoromethoxy-benzothiazol-2-yl)-succinamide]	–
0	0	0	78	0	0	CNCCCCC(=O)Nc1nc2ccc(OC(F)(F)F)cc2s1 [Cpd 25, 5-Methylamino-pentanoic acid (6-trifluoromethoxy-benzothiazol-2-yl)-amide]	–
5	19	0	66	0	0	NCCCCC(=O)Nc1nc2ccc(OC(F)(F)F)cc2s1 [Cpd 26, 5-Amino-pentanoic acid (6-trifluoromethoxy-benzothiazol-2-yl)-amide]	–
13	22	0	59	0	0	O=C(Cc1ccccc1[N+](=O)[O-])Nc1nc2ccc(OC(F)(F)F)cc2s1 [Cpd 27, 2-(2-Nitro-phenyl)-N-(6-trifluoromethoxy-benzothiazol-2-yl)-acetamide]	–
0	80	0	24	0	0	Nc1ccc(C(=O)Nc2nc3ccc(OC(F)(F)F)cc3s2)cc1 [Cpd 28, 4-Amino-N-(6-trifluoromethoxy-benzothiazol-2-yl)-benzamide]	–
